Experiment [1] deals with His-AKT (Full Length) (Homo sapiens (Human), UniProt P31749). Description: AKT enzyme assay. To be noted: 160 uM ATP, 90 min at 25° C. Type of experiment: biochemical. The procedure:
A TTP Mosquito liquid handling instrument was used to place 125 nl of the appropriate concentration of inhibitor in 100% DMSO (for a dose response curve calculation) into each well of a 384-well plate. To this reaction components were added to a final volume of 12.5 μl: • 0.1 ng/μl His-AKT (Full Length), (Invitrogen, Part # P2999, Lot #641228C). • 160 uM ATP (Fluka, 02055) • 1 mM DTT (Sigma, D0632) • 1 mM MgCl2 (Sigma, M1028) • 1 μM substrate peptide (sequence FITC-AHA-GRPRTSSFAEG-NH2), • synthesized by Tufts Peptide Synthesis service. • 100 mM HEPES pH 7.5 (Calbiochem, 391338) • 0.015% Brij-35 (Sigma, B4184)
The reaction was incubated for 90 min at 25° C., and then stopped by the addition of 70 μl of Stop buffer (100 mM HEPES pH 7.5, 0.015% Brij-35, 10 mM EDTA (Sigma, E7889)).
The plate was read on a Caliper LC 3000 in an Off-Chip mobility shift assay format, using the following parameters for a 12-sipper chip: screening pressure −2.3 psi, upstream voltage −500, and downstream voltage −3000. These conditions caused unphosphorylated substrate and phosphorylated product peptide to resolve as separate peaks allowing direct measurement of percentage of conversion of substrate to product. The percent conversion was plotted against concentration of inhibitor to produce a sigmoidal dose response curve, from which an IC50 was calculated.

Experiment [2] has as its target P70S6K (T412E mutant, Millipore) (Homo sapiens (Human), UniProt P23443, T412E). Description: P70S6K enzyme assay. The experiment is classed as biochemical. To be noted: 24 μM ATP, 90 min at 25° C. As for the experimental part:
P70S6K inhibitor compounds were diluted and plated in 96 well plates. A reaction mixture including the following components was then added to the compound plate to initiate the enzyme reaction; P70S6K (3 nM, T412E mutant, Millipore) was mixed with 24 μM ATP in an assay buffer containing 100 mM Hepes (pH 7.5), 5 mM MgCl2, 1 mM DTT, 0.015% Brij and 1 μM of the substrate peptide FITC-AHA-AKRRRLSSLRA-OH (derived from the S6 ribosomal protein sequence, FITC=fluorescein isothiocyanate, AHA=6-aminohexanoic acid). The reaction was incubated for 90 min at 25° C., before the addition of 10 mM EDTA to stop the reaction. The proportion of substrate and product (phosphorylated) peptide was analysed on a Caliper Life Sciences Lab Chip 3000, using a pressure of −1.4 psi, and upstream and downstream voltages of −3000 and −700 respectively. Product peaks were resolved before substrate peaks on the resulting chromatograms.

The structures appear in SMILES notation. Bounds are passed on as bounds.

P70S6K (T412E mutant, Millipore), sequence (P23443 whole entry T412E): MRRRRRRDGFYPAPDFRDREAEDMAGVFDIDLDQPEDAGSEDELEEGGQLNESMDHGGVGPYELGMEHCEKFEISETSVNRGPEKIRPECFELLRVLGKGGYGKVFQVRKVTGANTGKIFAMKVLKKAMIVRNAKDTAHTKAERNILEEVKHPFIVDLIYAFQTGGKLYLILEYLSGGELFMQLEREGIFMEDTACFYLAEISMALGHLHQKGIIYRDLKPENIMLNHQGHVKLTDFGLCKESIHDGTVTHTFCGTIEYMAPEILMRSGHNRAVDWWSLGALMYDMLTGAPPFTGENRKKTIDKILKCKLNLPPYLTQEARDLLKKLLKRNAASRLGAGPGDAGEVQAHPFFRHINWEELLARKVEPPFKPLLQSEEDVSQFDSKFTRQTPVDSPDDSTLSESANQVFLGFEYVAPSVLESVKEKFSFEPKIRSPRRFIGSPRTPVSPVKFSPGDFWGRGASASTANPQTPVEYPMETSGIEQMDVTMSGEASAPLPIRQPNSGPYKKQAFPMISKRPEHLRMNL
His-AKT (Full Length), sequence (P31749 whole entry): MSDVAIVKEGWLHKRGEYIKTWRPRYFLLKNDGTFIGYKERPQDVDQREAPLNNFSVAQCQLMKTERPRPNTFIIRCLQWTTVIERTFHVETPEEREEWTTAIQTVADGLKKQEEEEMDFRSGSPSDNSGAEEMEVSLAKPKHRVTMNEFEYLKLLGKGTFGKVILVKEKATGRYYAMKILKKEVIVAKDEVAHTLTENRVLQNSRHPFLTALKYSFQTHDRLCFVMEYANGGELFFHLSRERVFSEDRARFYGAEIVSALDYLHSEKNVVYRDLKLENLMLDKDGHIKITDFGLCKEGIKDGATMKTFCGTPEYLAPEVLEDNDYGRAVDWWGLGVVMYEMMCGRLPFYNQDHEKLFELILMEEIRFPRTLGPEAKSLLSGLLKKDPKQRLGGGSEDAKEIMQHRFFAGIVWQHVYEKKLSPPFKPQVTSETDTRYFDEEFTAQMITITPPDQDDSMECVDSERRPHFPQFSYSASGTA

As usually defined, the IC50 is the concentration at which inhibition is half-maximal. As for `CN(C)CC(c1ccc(F)c(F)c1)N1CCN(c2ncnc3c2NC(=O)CN3)CC1` (stereo not shown) [Compound A49, 4-(4-(1-(3,4-difluorophenyl)-2-(dimethylamino)ethyl)piperazin-1-yl)-7,8-dihydropteridin-6(5H)-one], the IC50 in experiment [1] and in experiment [2] was above 1000 nM in each case.

`CNCC(c1ccc(F)c(F)c1)N1CCN(c2ncnc3c2NC(=O)CN3)CC1` (stereo not shown) [Compound A50, 4-(4-(1-(3,4-difluorophenyl)-2-(methylamino)ethyl)piperazin-1-yl)-7,8-dihydropteridin-6(5H)-one]: the IC50 in experiment [1] and in experiment [2] was above 1000 nM in each case.

For `O=C1CNc2ncnc(N3CCN(C(CN4CCC4)c4ccc(F)c(F)c4)CC3)c2N1` (stereo not shown) [Compound A51, 4-(4-(2-(azetidin-1-yl)-1-(3,4-difluorophenyl)ethyl)piperazin-1-yl)-7,8-dihydropteridin-6(5H)-one], the half-maximal inhibitory concentration (IC50) in experiment [1] and in experiment [2] was above 1000 nM each time.

Regarding `O=C1CNc2ncnc(N3CCN(C(CN4CCCC4)c4ccc(F)c(F)c4)CC3)c2N1` (stereo not shown) [Compound A52, 4-(4-(1-(3,4-difluorophenyl)-2-(pyrrolidin-1-yl)ethyl)piperazin-1-yl)-7,8-dihydropteridin-6(5H)-one], the half-inhibitory concentration (IC50) in experiment [1] and in experiment [2] was above 1000 nM throughout.

`O=C1CNc2ncnc(N3CCN(C(CN4CCCCC4)c4ccc(F)c(F)c4)CC3)c2N1` (stereo not shown) [Compound A53, 4-(4-(1-(3,4-difluorophenyl)-2-(piperidin-1-yl)ethyl)piperazin-1-yl)-7,8-dihydropteridin-6(5H)-one]: the half-maximal inhibitory concentration (IC50) in experiment [1] and in experiment [2] was above 1000 nM each time.

On to `CN(C)CC(c1ccc(F)c(Cl)c1)N1CCN(c2ncnc3c2NC(=O)CN3)CC1` (stereo not shown) [Compound A54, 4-(4-(1-(3-chloro-4-fluorophenyl)-2-(dimethylamino)ethyl)piperazin-1-yl)-7,8-dihydropteridin-6(5H)-one], for which the IC50 in experiment [1] and in experiment [2] was above 1000 nM in each case.

As to `O=C1CNc2ncnc(N3CCN(C(CN4CCC4)c4ccc(F)c(Cl)c4)CC3)c2N1` (stereo not shown) [Compound A55, 4-(4-(2-(azetidin-1-yl)-1-(3-chloro-4-fluorophenyl)ethyl)piperazin-1-yl)-7,8-dihydropteridin-6(5H)-one], the IC50 in experiment [1] and in experiment [2] was above 1000 nM in each case.

Regarding `O=C1CNc2ncnc(N3CCN(C(CN4CCCC4)c4ccc(F)c(Cl)c4)CC3)c2N1` (stereo not shown) [Compound A56, 4-(4-(1-(3-chloro-4-fluorophenyl)-2-(pyrrolidin-1-yl)ethyl)piperazin-1-yl)-7,8-dihydropteridin-6(5H)-one], the IC50 in experiment [1] and in experiment [2] was above 1000 nM throughout.

`O=C1CNc2ncnc(N3CCN(C(CN4CCCCC4)c4ccc(F)c(Cl)c4)CC3)c2N1` (stereo not shown) [Compound A57]: the IC50 in experiment [1] and in experiment [2] was above 1000 nM in each case.

Take `CN(C)CC(c1ccc(Cl)c(F)c1)N1CCN(c2ncnc3c2NC(=O)CN3)CC1` (stereo not shown) [Compound A58, 4-(4-(1-(4-chloro-3-fluorophenyl)-2-(dimethylamino)ethyl)piperazin-1-yl)-7,8-dihydropteridin-6(5H)-one]: the IC50 was 101 to 500 nM in experiment [1] and above 1000 nM in experiment [2].

With `CNCC(c1ccc(Cl)c(F)c1)N1CCN(c2ncnc3c2NC(=O)CN3)CC1` (stereo not shown) [Compound A59, 4-(4-(1-(4-chloro-3-fluorophenyl)-2-(methylamino)ethyl)piperazin-1-yl)-7,8-dihydropteridin-6(5H)-one], the IC50 in experiment [1] and in experiment [2] was above 1000 nM each time.

Regarding `O=C1CNc2ncnc(N3CCN(C(CN4CCC4)c4ccc(Cl)c(F)c4)CC3)c2N1` (stereo not shown) [Compound A60, 4-(4-(2-(azetidin-1-yl)-1-(4-chloro-3-fluorophenyl)ethyl)piperazin-1-yl)-7,8-dihydropteridin-6(5H)-one], the IC50 in experiment [1] and in experiment [2] was above 1000 nM each time.

Regarding `O=C1CNc2ncnc(N3CCN(C(CN4CCCC4)c4ccc(Cl)c(F)c4)CC3)c2N1` (stereo not shown) [Compound A61, 4-(4-(1-(4-chloro-3-fluorophenyl)-2-(pyrrolidin-1-yl)ethyl)piperazin-1-yl)-7,8-dihydropteridin-6(5H)-one], the IC50 in experiment [1] is 101 to 500 nM; in experiment [2] it was above 1000 nM.

As for `O=C1CNc2ncnc(N3CCN(C(CN4CCCCC4)c4ccc(Cl)c(F)c4)CC3)c2N1` (stereo not shown) [Compound A62, 4-(4-(1-(4-chloro-3-fluorophenyl)-2-(piperidin-1-yl)ethyl)piperazin-1-yl)-7,8-dihydropteridin-6(5H)-one], the IC50 is 501 to 1000 nM in experiment [1] and above 1000 nM in experiment [2].

`CN(C)CCNCC(c1ccc(C(F)(F)F)cc1)N1CCN(c2ncnc3c2NC(=O)CN3)CC1` (stereo not shown) [Compound A63, 4-(4-(2((2-(dimethylamino)ethyl)amino)-1-(4-(trifluoromethyl)phenyl)-ethyl)piperazin-1-yl)-7,8-dihydropteridin-6(5H)-one]: the IC50 in experiment [1] and in experiment [2] was above 1000 nM in each case.

As for `CN(C)CCNCC(c1cccc(C(F)(F)F)c1)N1CCN(c2ncnc3c2NC(=O)CN3)CC1` (stereo not shown) [Compound A64, 4-(4-(2-((2-(dimethylamino)ethyl)amino)-1-(3-(trifluoromethyl)phenyl)-ethyl)piperazin-1-yl)-7,8-dihydropteridin-6(5H)-one], the half-maximal inhibitory concentration (IC50) in experiment [1] and in experiment [2] was above 1000 nM each time.

Turning to `Cc1ccc(C(CNCCN(C)C)N2CCN(c3ncnc4c3NC(=O)CN4)CC2)cc1` (stereo not shown) [Compound A65, 4-(4-(2-((2-(dimethylamino)ethyl)amino)-1-(p-tolyl)ethyl)piperazin-1-yl)-7,8-dihydropteridin-6(5H)-one], the IC50 in experiment [1] and in experiment [2] was above 1000 nM in each case.

The values above are taken from patent publication US10287300B2 (Merck Patent GmbH, priority 2012, dated 2019).
